Test system: TEAD-dependent transcription
Experiment: TEAD-dependent transcription cell-based reporter assay (MSTO-211H+12XGTIIC luciferase)
Set-up: species or system human
Conditions: Homo sapiens; MSTO-211H+12XGTIIC cell line, luciferase signal normalized to cell viability, 24 hours compound incubation; read-out: MSTO-211H GMean IC50 (uM) Cell Assay Reporter Cell Variant: TEAD
Summary of the method: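 MSTO-211H mesothelioma cells stably carrying a 12xGTIIC TEAD-response-element luciferase reporter, treated with serial compound dilutions for 24 h at 37 °C. Luminescence normalized to CellTiter-Fluor viability signal; % inhibition versus DMSO and 20 μM K-975 controls, IC50 by nonlinear regression.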

| Compound | IC50 [µM] |
| --- | --- |
| O=C(CC1CCOCC1)N1CCc2ccc(Oc3ccc(C(F)(F)F)cc3)cc2C1 [P-0087, 2-(tetrahydro-2H-pyran-4-yl)-1-(7-(4-(trifluoro-methyl)phenoxy)-3,4-dihydroisoquinolin-2(1H)-yl)ethan-1-one] | 0.001 to 10 |
| O=C(CC1CCCCC1)N1CCc2c(cccc2Oc2ccc(C(F)(F)F)cc2)C1 [P-0267, 2-cyclohexyl-1-(5-(4-(trifluoromethyl)phen-oxy)-3,4-dihydroisoquin-olin-2(1H)-yl)ethan-1-one] | 10 to 100 |
| NC(=O)CCN1CCc2ccc(Oc3ccc(C(F)(F)F)cc3)cc2C1 [P-0029, 3-(7-(4-(trifluorometh-yl)phenoxy)-3,4-dihydro-isoquinolin-2(1H)-yl)-propanamide] | 10 to 100 |
| O=C(CC1CCS(=O)(=O)C1)N1CCc2ccc(Oc3ccc(C(F)(F)F)cc3)cc2C1 (stereo not drawn) [P-0059, 2-(1,1-dioxidotetrahydro-thiophen-3-yl)-1-(7-(4-(trifluoromethyl)phen-oxy)-3,4-dihydroisoquin-olin-2(1H)-yl)ethan-1-one] | 0.001 to 10 |
| O=C(Cc1ccn[nH]1)N1CCc2ccc(Oc3ccc(C(F)(F)F)c(F)c3)cc2C1 [P-0149, 1-(7-(3-fluoro-4-(trifluoromethyl)phen-oxy)-3,4-dihydroiso-quinolin-2(1H)-yl)-2-(1H-pyrazol-5-yl)-ethan-1-one] | 0.001 to 10 |
| O=S(=O)(C1CC1)N1CCc2ccc(Oc3ccc(C(F)(F)F)cc3)cc2C1 [P-0006, 2-(cyclopropylsulfonyl)-7-(4-(trifluoromethyl)-phenoxy)-1,2,3,4-tetra-hydroisoquinoline] | 0.001 to 10 |
| Nc1ncc(CC(=O)N2CCc3ccc(Oc4ccc(C(F)(F)F)cc4)cc3C2)s1 [P-0093, 2-(2-aminothiazol-5-yl)-1-(7-(4-(trifluoromethyl)-phenoxy)-3,4-dihydroiso-quinolin-2(1H)-yl)ethan-1-one] | 0.001 to 10 |
| Nc1nc(C(=O)N2CCc3c(cccc3Oc3ccc(C(F)(F)F)cc3)C2)cs1 [P-0240, (2-aminothiazol-4-yl)(5-(4-(trifluoromethyl)phen-oxy)-3,4-dihydroisoquin-olin-2(1H)-yl)methanone] | 0.001 to 10 |
| CNCCC(=O)N1CCc2ccc(Oc3ccc(C(F)(F)F)cc3)cc2C1 [P-0068, 3-(methylamino)-1-(7-(4-(trifluoromethyl)phen-oxy)-3,4-dihydroisoquin-olin-2(1H)-yl)propan-1-one] | 0.001 to 10 |
| C=CS(=O)(=O)N1CCC(C(=O)N2CCc3ccc(Oc4ccc(C(F)(F)F)c(F)c4)cc3C2)C1 (stereo not drawn) [P-0158, (7-(3-fluoro-4-(trifluoro-methyl)phenoxy)-3,4-dihydroisoquinolin-2(1H)-yl)(1-(vinylsul-fonyl)pyrrolidin-3-yl)-methanone] | 0.001 to 10 |
| O=C(CCc1nnc[nH]1)N1CCc2ccc(Oc3ccc(C(F)(F)F)cc3)cc2C1 [P-0058, 3-(4H-1,2,4-triazol-3-yl)-1-(7-(4-(trifluorometh-yl)phenoxy)-3,4-dihydro-isoquinolin-2(1H)-yl)-propan-1-one] | 0.001 to 10 |
| C=CC(=O)NCC(=O)N1CCc2ccc(Oc3ccc(C(F)(F)F)c(F)c3)cc2C1 [P-0115, N-(2-(7-(3-fluoro-4-(trifluoromethyl)phen-oxy)-3,4-dihydroisoquin-olin-2(1H)-yl)-2-oxoeth-yl)acrylamide] | 0.001 to 10 |
| C=CC(=O)N1CCCC(C(=O)N2CCc3ccc(Oc4ccc(C(F)(F)F)c(F)c4)cc3C2)C1 (stereo not drawn) [P-0120, 1-(3-(7-(3-fluoro-4-(trifluoromethyl)phen-oxy)-1,2,3,4-tetrahydro-isoquinoline-2-carbon-yl)piperidin-1-yl)prop-2-en-1-one] | 0.001 to 10 |
| NS(=O)(=O)N1CC(C(=O)N2CCc3ccc(Oc4ccc(C(F)(F)F)cc4)cc3C2)C1 [P-0102, 3-(7-(4-(trifluoromethyl)-phenoxy)-1,2,3,4-tetra-hydroisoquinoline-2-carbonyl)azetidine-1-sulfonamide] | 0.001 to 10 |
| O=C(CNC(=O)C(F)(F)F)N1CCc2ccc(Oc3ccc(C(F)(F)F)cc3)cc2C1 [P-0100, 2,2,2-trifluoro-N-(2-oxo-2-(7-(4-(trifluoromethyl)-phenoxy)-3,4-dihydroiso-quinolin-2(1H)-yl)ethyl)-acetamide] | 0.001 to 10 |
| CCC1c2cc(Oc3ccc(C(F)(F)F)cc3)ccc2CCN1C(=O)CCS(C)(=O)=O (stereo not drawn) [P-0209, 1-(1-ethyl-7-(4-(trifluoro-methyl)phenoxy)-3,4-dihydroisoquinolin-2(1H)-yl)-3-(methylsul-fonyl)propan-1-one] | 0.001 to 10 |
| CC(=O)N1CCC(c2c(Oc3ccc(C(F)(F)F)cc3)ccc3c2CN(C(=O)CCS(C)(=O)=O)CC3)C1 (stereo not drawn) [P-0215, 1-(8-(1-acetylpyrrolidin-3-yl)-7-(4-(trifluorometh-yl)phenoxy)-3,4-dihydro-isoquinolin-2(1H)-yl)-3-(methylsulfonyl)pro-pan-1-one] | 10 to 100 |
| CC(C)S(=O)(=O)N1CCc2c(cccc2Oc2ccc(C(F)(F)F)cc2)C1 [P-0235, 2-(isopropylsulfonyl)-5-(4-(trifluoromethyl)phen-oxy)-1,2,3,4-tetrahydro-isoquinoline] | 0.001 to 10 |

| Compound | IC50 [µM] |
| --- | --- |
| CS(=O)(=O)CCCC(=O)N1CCc2ccc(Oc3ccc(C(F)(F)F)cc3)cc2C1 [P-0052, 4-(methylsulfonyl)-1-(7-(4-(trifluoromethyl)phen-oxy)-3,4-dihydroisoquin-olin-2(1H)-yl)butan-1-one] | 0.001 to 10 |
| CN1CCN(CCC(=O)N2CCc3ccc(Oc4ccc(C(F)(F)F)c(F)c4)cc3C2)CC1 [P-0095, 1-(7-(3-fluoro-4-(trifluoromethyl)phenoxy)-3,4-dihydroisoquinolin-2(1H)-yl)-3-(4-methylpiperazin-1-yl)propan-1-one] | 0.001 to 10 |
| CCC(=O)CN1CCc2ccc(Oc3ccc(C(F)(F)F)cc3)cc2C1 [P-0028, 1-(7-(4-(trifluorometh-yl)phenoxy)-3,4-dihydro-isoquinolin-2(1H)-yl)-butan-2-one] | 10 to 100 |
| O=C(Nc1ccccc1)N1CCc2ccc(Oc3ccc(C(F)(F)F)cc3)cc2C1 [P-0022, N-phenyl-7-(4-(trifluoro-methyl)phenoxy)-3,4-dihydroisoquinoline-2(1H)-carboxamide] | 0.001 to 10 |
| Nc1cncc(C(=O)N2CCc3c(cccc3Oc3ccc(C(F)(F)F)cc3)C2)n1 [P-0244, (6-aminopyrazin-2-yl)(5-(4-(trifluoromethyl)phen-oxy)-3,4-dihydroisoquin-olin-2(1H)-yl)methanone] | 0.001 to 10 |
| O=C(CCS(=O)(=O)C(F)(F)F)N1CCc2ccc(Oc3ccc(Cl)cc3)cc2C1 [P-0091, 1-(7-(4-chlorophenoxy)-3,4-dihydroisoquinolin-2(1H)-yl)-3-((trifluoro-methyl)sulfonyl)propan-1-one] | 0.001 to 10 |
| O=C(Nc1ccccc1)N1CCc2c(cccc2Oc2ccc(C(F)(F)F)cc2)C1 [P-0237, N-phenyl-5-(4-(trifluoro-methyl)phenoxy)-3,4-dihydroisoquinoline-2(1H)-carboxamide] | 0.001 to 10 |
| CNC(=O)c1cccc(N2CCc3ccc(Oc4ccc(C(F)(F)F)cc4)cc3C2)n1 [P-0229, N-methyl-6-(7-(4-(trifluoromethyl)phen-oxy)-3,4-dihydroisoquin-olin-2(1H)-yl)picolin-amide] | 0.001 to 10 |
| CCCCC(=O)N1CCc2ccc(Oc3ccc(C(F)(F)F)cc3)cc2C1 [P-0023, 1-(7-(4-(trifluorometh-yl)phenoxy)-3,4-dihydro-isoquinolin-2(1H)-yl)-pentan-1-one] | 0.001 to 10 |
| CS(=O)(=O)CCCN1CCc2ccc(Oc3ccc(C(F)(F)F)cc3)cc2C1 [P-0053, 2-(3-(methylsulfonyl)-propyl)-7-(4-(trifluoro-methyl)phenoxy)-1,2,3,4-tetrahydroisoquinoline] | 0.001 to 10 |
| O=C(Cc1ncc[nH]1)N1CCc2ccc(Oc3ccc(C(F)(F)F)c(F)c3)cc2C1 [P-0152, 1-(7-(3-fluoro-4-(trifluoromethyl)phen-oxy)-3,4-dihydroisoquin-olin-2(1H)-yl)-2-(1H-imidazol-2-yl)ethan-1-one] | 0.001 to 10 |
| NS(=O)(=O)CCC(=O)N1CCc2ccc(Oc3ccc(C(F)(F)F)c(F)c3)cc2C1 [P-0123, 3-(7-(3-fluoro-4-(trifluoromethyl)phen-oxy)-3,4-dihydroisoquin-olin-2(1H)-yl)-3-oxopro-pane-1-sulfonamide] | 0.001 to 10 |
| N#CC1(CC(=O)N2CCc3ccc(Oc4ccc(C(F)(F)F)cc4)cc3C2)CC1 [P-0060, 1-(2-oxo-2-(7-(4-(trifluoromethyl)phen-oxy)-3,4-dihydroiso-quinolin-2(1H)-yl)-ethyl)cyclopropane-1-carbonitrile] | 0.001 to 10 |
| CC(=O)N1CC(Cc2c(Oc3ccc(C(F)(F)F)cc3)ccc3c2CN(C(=O)CCS(C)(=O)=O)CC3)C1 [P-0216, 1-(8-((1-acetylazetidin-3-yl)methyl)-7-(4-(trifluoromethyl)phen-oxy)-3,4-dihydroisoquin-olin-2(1H)-yl)-3-(methyl-sulfonyl)propan-1-one] | 0.001 to 10 |
| CN(C)S(=O)(=O)N1CCc2ccc(Oc3ccc(C(F)(F)F)cc3)cc2C1 [P-0024, N,N-dimethyl-7-(4-(trifluoromethyl)phen-oxy)-3,4-dihydroiso-quinoline-2(1H)-sulfon-amide] | 0.001 to 10 |
| O=C(Cc1cn[nH]c1O)N1CCc2c(cccc2Oc2ccc(C(F)(F)F)cc2)C1 [P-0252, 2-(5-hydroxy-1H-pyr-azol-4-yl)-1-(5-(4-(trifluoromethyl)phen-oxy)-3,4-dihydroisoquin-olin-2(1H)-yl)ethan-1-one] | 0.001 to 10 |
| O=C(Cc1c[nH]c(=O)[nH]c1=O)N1CCc2ccc(Oc3ccc(C(F)(F)F)c(F)c3)cc2C1 [P-0139, 5-(2-(7-(3-fluoro-4-(trifluoromethyl)phen-oxy)-3,4-dihydroisoquin-olin-2(1H)-yl)-2-oxoeth-yl)pyrimidine-2,4(1H, 3H)-dione] | 0.001 to 10 |
| CS(=O)(=O)N1CCc2ccc(Oc3ccc(C(F)(F)F)cc3)cc2C1 [P-0005, 2-(methylsulfonyl)-7-(4-(trifluoromethyl)phen-oxy)-1,2,3,4-tetrahydro-isoquinoline] | 0.001 to 10 |

Reference: US20250129028A1, “COMPOUNDS AND METHODS FOR YAP/TEAD MODULATION AND INDICATIONS THEREFOR” (Opna Bio SA, priority 2022, published 2025)
